Patent publication US20140163026A1, “8-ETHYL-6-(ARYL)PYRIDO[2,3-D]PYRIMIDIN-7(8H)-ONES FOR THE TREATMENT OF NERVOUS SYSTEM DISORDERS AND CANCER” (Afraxis Holdings, Inc., priority 2011, published 2014)
pIC50: −log10 of the molar value.

Tests used:
Type in all cases: biochemical
[1] = target: PAK4 (Homo sapiens, UniProt O96013); assay: In vitro PAK inhibition assay (SelectScreen, Ser/Thr 20 peptide)
Method: (§1) Compounds are screened in 1% DMSO (final) in the well. For 10 point titrations, 3-fold serial dilutions are conducted.
(§2) All Peptide/Kinase Mixtures are diluted to a 2× working concentration in the appropriate Kinase Buffer
The 2×PAK4/Ser/Thr 20 mixture is prepared in 50 mM HEPES pH 7.5, 0.01% BRIJ-35, 10 mM MgCl2, 1 mM EGTA. The final 10 μL Kinase Reaction consists of 0.1-0.75 ng PAK4 and 2 μM Ser/Thr 20 in 50 mM HEPES pH 7.5, 0.01% BRIJ-35, 10 mM MgCl2, 1 mM EGTA. After the 1 hour Kinase Reaction incubation, 5 μL of a 1:256 dilution of Development Reagent A is added.
(§3) This control yields 100% cleaved peptide in the Development Reaction.
(§4) The 100% Phosphorylation Control, which consists of a synthetically phosphorylated peptide of the same sequence as the peptide substrate, is designed to allow for the calculation of percent phosphorylation.
The minimum Emission Ratio in a screen is established by the 0% Inhibition Control, which contains active kinase. This control is designed to produce a 10-50%* phosphorylated peptide in the Kinase Reaction.
(§5) A known inhibitor control standard curve, 10 point titration, is run for each individual kinase on the same plate as the kinase to ensure the kinase is inhibited within an expected IC50 range previously determined.
(§6) Bar-coded Corning, low volume NBS, black 384-well plate (Corning Cat. #3676) • 1. Add the following solutions to a well in a 384-well plate: • 2.5 μL of 4× Test Compound OR (100 nL 100× Test Compound plus 2.4 μL kinase buffer) • 5 μL of 2× Peptide/Kinase (PAK) Mixture • 2.5 μL of 4×ATP Solution • 2. Shake the plate for 30-seconds • 3. Incubate the PAK Kinase Reaction at room temperature for 60-minutes • 4. Add 5 μL of Development Reagent Solution to each well • 5. Shake the plate for 30-seconds • 6. Incubate the Development Reaction for 60-minutes • 7. Determine the fluorescence using a fluorescence plate reader • 8. Analyze the fluorescence data
SelectScreen® Kinase Profiling Service uses XLfit from IDBS. The dose response curve is curve fit to model number 205 (sigmoidal dose-response model).
The table below provides specifications and data around each kinase. The representative IC50 value with a known inhibitor for each kinase was determined at the ATP bin nearest to the ATP Km app.

[2] = target: PAK3 (Homo sapiens, UniProt O75914); assay: as above
Method: as §1, §2
The 2×PAK3/Ser/Thr 20 mixture is prepared in 50 mM HEPES pH 7.5, 0.01% BRIJ-35, 10 mM MgCl2, 1 mM EGTA.
as §3, §4
(§7) This control is designed to produce a 10-50%* phosphorylated peptide in the Kinase Reaction.
as §5
as §6, with “Add” for “Bar-coded Corning, low volume NBS, black 384-well plate (Corning Cat. #3676) • 1. Add”
(§8) SelectScreen® Kinase Profiling Service uses XLfit from IDBS.
(§9) The representative IC50 value with a known inhibitor for each kinase was determined at the ATP bin nearest to the ATP Km app.

[3] = target: PAK2 (PAK65) (Homo sapiens, UniProt Q13177); assay: as above
Method: as §1, §2
The 2×PAK2 (PAK65)/Ser/Thr 20 mixture is prepared in 50 mM HEPES pH 7.5, 0.01% BRIJ-35, 10 mM MgCl2, 1 mM EGTA. The final 10 μL Kinase Reaction consists of 0.29-6 ng PAK2 (PAK65) and 2 μM Ser/Thr 20 in 50 mM HEPES pH 7.5, 0.01% BRIJ-35, 10 mM MgCl2, 1 mM EGTA.
as §3, §4, §7, §5
as §6, with “Add” for “Bar-coded Corning, low volume NBS, black 384-well plate (Corning Cat. #3676) • 1. Add”
as §8, §9

[4] = target: PAK1 (Homo sapiens, UniProt Q13153); assay: In vitro PAK inhibition assay (SelectScreen, Ser/Thr 19 peptide)
Method: as §1, §2
The 2×PAK1/Ser/Thr 19 mixture is prepared in 50 mM HEPES pH 7.5, 0.01% BRIJ-35, 10 mM MgCl2, 1 mM EGTA.
as §3, §4, §7, §5
as §6, with “Add” for “Bar-coded Corning, low volume NBS, black 384-well plate (Corning Cat. #3676) • 1. Add”
as §8, §9

Sequence of PAK4 (O96013 whole entry): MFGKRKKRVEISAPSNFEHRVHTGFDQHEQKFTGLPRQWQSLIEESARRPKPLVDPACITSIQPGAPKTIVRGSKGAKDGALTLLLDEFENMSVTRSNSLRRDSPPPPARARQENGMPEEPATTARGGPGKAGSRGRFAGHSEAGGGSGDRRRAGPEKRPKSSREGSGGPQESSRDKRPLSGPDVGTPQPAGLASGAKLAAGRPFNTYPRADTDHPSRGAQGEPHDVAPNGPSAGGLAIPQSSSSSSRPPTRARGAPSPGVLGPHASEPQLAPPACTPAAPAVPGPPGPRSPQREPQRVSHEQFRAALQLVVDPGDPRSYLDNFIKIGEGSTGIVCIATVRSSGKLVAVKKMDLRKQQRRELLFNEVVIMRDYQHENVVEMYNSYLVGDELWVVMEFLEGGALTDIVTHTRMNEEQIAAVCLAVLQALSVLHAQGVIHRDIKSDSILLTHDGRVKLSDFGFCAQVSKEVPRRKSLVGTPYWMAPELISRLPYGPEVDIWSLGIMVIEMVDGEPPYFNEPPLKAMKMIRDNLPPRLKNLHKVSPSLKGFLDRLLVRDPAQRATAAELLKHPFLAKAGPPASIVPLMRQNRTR
Sequence of PAK1 (Q13153 whole entry): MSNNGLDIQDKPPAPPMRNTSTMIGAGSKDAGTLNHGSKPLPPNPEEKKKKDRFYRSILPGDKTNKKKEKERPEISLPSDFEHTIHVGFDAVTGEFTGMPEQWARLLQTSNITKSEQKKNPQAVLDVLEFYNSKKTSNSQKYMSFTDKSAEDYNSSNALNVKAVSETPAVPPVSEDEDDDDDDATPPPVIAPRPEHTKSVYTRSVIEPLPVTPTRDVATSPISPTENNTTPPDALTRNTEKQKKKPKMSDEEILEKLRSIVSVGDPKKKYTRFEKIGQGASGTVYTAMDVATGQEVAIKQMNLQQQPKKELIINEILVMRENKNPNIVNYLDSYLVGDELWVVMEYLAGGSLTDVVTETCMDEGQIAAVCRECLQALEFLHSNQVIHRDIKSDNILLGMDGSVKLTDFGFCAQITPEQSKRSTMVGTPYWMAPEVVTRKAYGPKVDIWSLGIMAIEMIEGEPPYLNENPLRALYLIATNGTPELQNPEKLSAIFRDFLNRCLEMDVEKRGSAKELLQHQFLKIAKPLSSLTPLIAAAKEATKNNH
Sequence of PAK3 (O75914 whole entry): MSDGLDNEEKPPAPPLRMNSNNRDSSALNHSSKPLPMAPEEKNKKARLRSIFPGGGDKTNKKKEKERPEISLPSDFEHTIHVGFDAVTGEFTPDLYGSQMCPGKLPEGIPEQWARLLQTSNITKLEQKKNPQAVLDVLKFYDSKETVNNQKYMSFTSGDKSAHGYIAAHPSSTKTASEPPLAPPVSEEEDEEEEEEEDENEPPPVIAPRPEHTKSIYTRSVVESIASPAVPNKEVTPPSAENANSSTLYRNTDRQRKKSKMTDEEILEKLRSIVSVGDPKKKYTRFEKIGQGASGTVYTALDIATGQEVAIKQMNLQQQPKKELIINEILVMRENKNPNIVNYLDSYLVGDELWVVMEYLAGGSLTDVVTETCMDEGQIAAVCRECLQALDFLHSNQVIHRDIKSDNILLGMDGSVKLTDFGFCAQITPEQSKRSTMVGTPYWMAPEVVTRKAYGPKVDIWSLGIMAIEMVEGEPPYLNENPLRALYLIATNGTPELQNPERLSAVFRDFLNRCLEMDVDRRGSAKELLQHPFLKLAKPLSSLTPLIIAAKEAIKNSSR
Sequence of PAK2 (PAK65) (Q13177 whole entry): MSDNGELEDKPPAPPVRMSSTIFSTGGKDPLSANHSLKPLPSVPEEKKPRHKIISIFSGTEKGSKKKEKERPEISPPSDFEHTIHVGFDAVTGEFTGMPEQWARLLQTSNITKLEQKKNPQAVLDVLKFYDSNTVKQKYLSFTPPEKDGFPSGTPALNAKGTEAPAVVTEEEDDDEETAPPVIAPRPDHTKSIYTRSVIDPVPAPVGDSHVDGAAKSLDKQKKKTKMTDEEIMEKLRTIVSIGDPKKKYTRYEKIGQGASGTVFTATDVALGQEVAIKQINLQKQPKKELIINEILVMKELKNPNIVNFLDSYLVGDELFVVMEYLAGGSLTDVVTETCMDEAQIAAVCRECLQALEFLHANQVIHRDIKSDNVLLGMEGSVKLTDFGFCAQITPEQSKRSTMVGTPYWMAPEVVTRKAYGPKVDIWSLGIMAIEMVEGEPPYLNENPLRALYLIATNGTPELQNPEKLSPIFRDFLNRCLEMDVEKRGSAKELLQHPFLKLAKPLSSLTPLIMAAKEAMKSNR

SMILES | pIC50 [1] | pIC50 [2] | pIC50 [3] | pIC50 [4]
CCn1c(=O)c(-c2ccc(-c3cn[nH]c3)cc2)cc2cnc(Nc3ccc(N4CCN(C)CC4)cc3)nc21 | ≤ 5.30 | < 5.30 | 5.30 to 6.30 | < 5.30
CCn1c(=O)c(-c2ccc(-c3ccn[nH]3)cc2)cc2cnc(Nc3ccc(N4CCN(C)CC4)cc3)nc21 | ≤ 5.30 | 5.30 to 6.30 | 6.30 to 7.30 | 5.30 to 6.30
CCn1c(=O)c(-c2nc(C)sc2C)cc2cnc(Nc3ccc(N4CCN(C)CC4)cc3)nc21 | ≤ 5.30 | < 5.30 | 5.30 to 6.30 | 5.30 to 6.30
CCn1c(=O)c(-c2sc(C)nc2C)cc2cnc(Nc3ccc(N4CCN(C)CC4)cc3)nc21 | ≤ 5.30 | < 5.30 | < 5.30 | < 5.30
CCn1c(=O)c(-c2ccc(-c3noc(C(F)(F)F)n3)cc2Cl)cc2cnc(Nc3ccc(N4CCN(C(C)C)CC4)cc3)nc21 | ≤ 5.30 | > 7.30 | > 7.30 | > 7.30
CCn1c(=O)c(-c2ccc(-c3noc(C)n3)cc2Cl)cc2cnc(Nc3ccc(N4CCN(C)CC4)c(F)c3)nc21 | ≤ 5.30 | > 7.30 | > 7.30 | > 7.30
CCN1CCN(c2ccc(Nc3ncc4cc(-c5ccc(-c6scnc6C)cc5Cl)c(=O)n(CC)c4n3)cc2)CC1 | ≤ 5.30 | 6.30 to 7.30 | > 7.30 | > 7.30
CCn1c(=O)c(-c2ccc(-c3noc(C)n3)cc2)cc2cnc(Nc3ccc(N4CCN(C)CC4)cc3)nc21 | ≤ 5.30 | 6.30 to 7.30 | 6.30 to 7.30 | > 7.30
CCn1c(=O)c(-c2ccc(-c3cccnc3C)cc2Cl)cc2cnc(Nc3ccc(N4CCN(C)CC4)cc3)nc21 | ≤ 5.30 | > 7.30 | > 7.30 | > 7.30
CCn1c(=O)c(-c2ccc(-c3ccc(C(=O)NC)nc3)cc2Cl)cc2cnc(Nc3ccc(N4CCN(C)CC4)cc3)nc21 | ≤ 5.30 | < 5.30 | 6.30 to 7.30 | < 5.30
CCn1c(=O)c(-c2ccc(-c3ccnc(C)c3)cc2Cl)cc2cnc(Nc3ccc(N4CCN(C)CC4)cc3)nc21 | ≤ 5.30 | > 7.30 | > 7.30 | > 7.30
CCn1c(=O)c(-c2ccc(-c3ccnc(C(=O)NC)c3)cc2Cl)cc2cnc(Nc3ccc(N4CCN(C)CC4)cc3)nc21 | ≤ 5.30 | 6.30 to 7.30 | > 7.30 | > 7.30
CCn1c(=O)c(-c2ccc(-c3ccnc(C(=O)NC)c3)cc2Cl)cc2cnc(Nc3ccc(C4CCN(C)CC4)cc3)nc21 | ≤ 5.30 | 6.30 to 7.30 | 6.30 to 7.30 | > 7.30
CCn1c(=O)c(-c2ccc(-c3ccc(C(=O)NC)nc3)cc2Cl)cc2cnc(Nc3ccc(C4CCN(C)CC4)cc3)nc21 | ≤ 5.30 | < 5.30 | 6.30 to 7.30 | 5.30 to 6.30
CCn1c(=O)c(-c2ccc(-c3cccnc3C)cc2Cl)cc2cnc(Nc3ccc(C4CCN(C)CC4)cc3)nc21 | ≤ 5.30 | > 7.30 | > 7.30 | > 7.30
CCn1c(=O)c(-c2ccc(-c3cccnc3)cc2Cl)cc2cnc(Nc3ccccc3)nc21 | ≤ 5.30 | 5.30 to 6.30 | 5.30 to 6.30 | 6.30 to 7.30
CCn1c(=O)c(-c2ccc(-c3cnc(C)s3)cc2Cl)cc2cnc(Nc3ccc(C4CCNCC4)c(F)c3)nc21 | 5.30 to 6.30 | > 7.30 | > 7.30 | > 7.30
CCn1c(=O)c(-c2ccc(-c3ccnc(C(=O)NC)c3)cc2Cl)cc2cnc(Nc3ccc(C4CCNCC4)cc3)nc21 | ≤ 5.30 | 6.30 to 7.30 | 6.30 to 7.30 | 6.30 to 7.30
CCN1CCC(c2ccc(Nc3ncc4cc(-c5ccc(-c6ccnc(C)c6)cc5Cl)c(=O)n(CC)c4n3)cc2)CC1 | ≤ 5.30 | 6.30 to 7.30 | > 7.30 | > 7.30

Second part, the compound after the results:

pIC50 [1] | pIC50 [2] | pIC50 [3] | pIC50 [4] | SMILES
5.30 to 6.30 | > 7.30 | > 7.30 | > 7.30 | CCn1c(=O)c(-c2ccc(-c3noc(C)n3)cc2Cl)cc2cnc(Nc3ccc(N4CCN(C(C)C)CC4)cc3)nc21
5.30 to 6.30 | > 7.30 | > 7.30 | > 7.30 | CCn1c(=O)c(-c2ccc(-c3scnc3C)cc2Cl)cc2cnc(Nc3ccc(N4CCNCC4)cc3)nc21
5.30 to 6.30 | > 7.30 | > 7.30 | > 7.30 | CCn1c(=O)c(-c2ccc(-c3cccnc3)cc2Cl)cc2cnc(Nc3ccc(C4CCNCC4)c(F)c3)nc21
5.30 to 6.30 | 6.30 to 7.30 | > 7.30 | > 7.30 | CCn1c(=O)c(-c2ccc(-c3ccc(C)nc3)cc2Cl)cc2cnc(Nc3ccc(N4CCN(C)CC4)cc3)nc21
5.30 to 6.30 | > 7.30 | > 7.30 | > 7.30 | CCn1c(=O)c(-c2ccc(-c3cccnc3)cc2Cl)cc2cnc(Nc3ccc(C4CCNC4)cc3)nc21 (centres unmarked)
5.30 to 6.30 | > 7.30 | > 7.30 | > 7.30 | CCn1c(=O)c(-c2ccc(-c3noc(C)n3)cc2Cl)cc2cnc(Nc3ccc(C4CCNC4)cc3)nc21 (centres unmarked)
5.30 to 6.30 | > 7.30 | > 7.30 | > 7.30 | CCn1c(=O)c(-c2ccc(-c3noc(C)n3)cc2Cl)cc2cnc(Nc3ccc(C4CCNC4)c(F)c3)nc21 (centres unmarked)
6.30 to 7.30 | > 7.30 | > 7.30 | > 7.30 | CCn1c(=O)c(-c2ccc(-c3noc(C)n3)cc2Cl)cc2cnc(Nc3ccc(N4CCNCC4)c(F)c3)nc21
5.30 to 6.30 | > 7.30 | > 7.30 | > 7.30 | CCn1c(=O)c(-c2ccc(-c3cccnc3)cc2Cl)cc2cnc(Nc3ccc(C4CCN(C)CC4)cc3)nc21
5.30 to 6.30 | > 7.30 | > 7.30 | > 7.30 | CCN1CCC(c2ccc(Nc3ncc4cc(-c5ccc(-c6cccnc6)cc5Cl)c(=O)n(CC)c4n3)cc2)CC1
5.30 to 6.30 | 6.30 to 7.30 | > 7.30 | > 7.30 | CCN1CCC(c2ccc(Nc3ncc4cc(-c5ccc(-c6cnc(C)s6)cc5Cl)c(=O)n(CC)c4n3)cc2)CC1
5.30 to 6.30 | 6.30 to 7.30 | > 7.30 | > 7.30 | CCn1c(=O)c(-c2ccc(-c3ccc(C)nc3)cc2Cl)cc2cnc(Nc3ccc(C4CCN(C)CC4)cc3)nc21
5.30 to 6.30 | > 7.30 | > 7.30 | < 5.30 | CCn1c(=O)c(-c2ccc(-c3ccnc(C)c3)cc2Cl)cc2cnc(Nc3ccc(C4CCN(C)CC4)cc3)nc21
5.30 to 6.30 | > 7.30 | > 7.30 | > 7.30 | CCN1CCC(c2ccc(Nc3ncc4cc(-c5ccc(-c6cnc(C)s6)cc5Cl)c(=O)n(CC)c4n3)cc2F)CC1
5.30 to 6.30 | > 7.30 | > 7.30 | > 7.30 | CCn1c(=O)c(-c2ccc(-c3cnc(C)s3)cc2Cl)cc2cnc(Nc3ccc(C4CCNC4)cc3)nc21 (centres unmarked)
5.30 to 6.30 | > 7.30 | > 7.30 | > 7.30 | CCn1c(=O)c(-c2ccc(-c3noc(C)n3)cc2Cl)cc2cnc(Nc3ccc(C4CCNCC4)c(F)c3)nc21
